Test in all cases: combination Emax (second highest fraction inhibited in the dose matrix, 72 h); higher = more inhibition; extreme values may be limits of the assay
Assay [1] relates to OCUB-M (Breast Carcinoma). Put shortly: (§1)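 Cell lines in DMEM/F12 or RPMI with 10% FBS were plated in 1536-well plates, held 24 hours at 37°C, 5% CO2, then given two-drug dose matrices for 72 hours (DMSO typically 0.2%). Viability was read by CellTiter-Glo 2.0 luminescence and scaled as inhibition from 0 (vehicle wells) to 1 (blank wells). Combination Emax is the second-highest inhibition in the matrix; Bliss excess is observed combination effect minus expected EA + EB − EA·EB, EA and EB being single-agent effects.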

Assay [2] relates to NCI-H322M (Lung Adenocarcinoma). Put shortly:
as §1

The subject of a further assay is A704 (Kidney Carcinoma). Put shortly: as §1
Assay [3] concerns HSC-2 (Oral Cavity Carcinoma). Put shortly: as §1
The next assay deals with RPMI-7951 (Melanoma). Put shortly: as §1
In assay [4] the test system is KINGS-1 (Low Grade Glioma). Put shortly:
as §1

In assay [5] the test system is HuP-T3 (Pancreatic Carcinoma). Put shortly:
as §1

For assay [6], the system named is VMRC-LCD (Lung Adenocarcinoma). Put shortly: as §1
The next assay deals with BT-20 (Breast Carcinoma). Put shortly:
as §1

Assay [7] concerns TGBC11TKB (Gastric Carcinoma). Put shortly: as §1
Another assay relates to GOTO (Neuroblastoma). Put shortly: as §1
For the next assay, the system named is NB7 (Neuroblastoma). Put shortly:
as §1

Assay [8] relates to HC-1 (Other Blood Carcinomas). Put shortly: as §1
In assay [9] the test system is KU-19-19 (Bladder Carcinoma). Put shortly:
as §1

The test system of assay [10] is PF-382 (T-Lymphoblastic Leukemia). Put shortly: as §1
For assay [11], the system named is LOU-NH91 (Squamous Cell Lung Carcinoma). Put shortly:
as §1

For assay [12], the system named is KLE (Endometrial Carcinoma). Put shortly:
as §1

In assay [13] the test system is EBC-1 (Squamous Cell Lung Carcinoma). Put shortly: as §1
A further assay has as its system U-87-MG (Glioblastoma). Put shortly: as §1
The next assay deals with NH-12 (Neuroblastoma). Put shortly: as §1

In the case of `CC(=O)c1c(C)c2cnc(Nc3ccc(N4CCNCC4)cn3)nc2n(C2CCCC2)c1=O` [Palbociclib] + CC1(C)CCC(CN2CCN(c3ccc(C(=O)NS(=O)(=O)c4ccc(NCC5CCOCC5)c([N+](=O)[O-])c4)c(Oc4cnc5[nH]ccc5c4)c3)CC2)=C(c2ccc(Cl)cc2)C1 [Venetoclax] (first compound max 10 µM, 7x7, partner max 1 µM), the “combination Emax” value in assay [1] came out at 0.0811; in assay [2], 0.492; in the assay on A704 (Kidney Carcinoma) it was 0.625; in assay [3], 0.245; in the assay on RPMI-7951 (Melanoma), 0.431; in [4], 0.206. The “combination Emax” value was 0.187 in assay [5]; 0.0618 in [6]; 0.0933 in the assay on BT-20 (Breast Carcinoma); 0.142 in assay [7]; 0.802 in the assay with GOTO (Neuroblastoma); 0.191 in the assay with NB7 (Neuroblastoma). The “combination Emax” value in assay [8] is 0.611; in assay [9] it was 0.319; in assay [10] it was 0.633; in [11], 0.145; in [12] it was 0.203; in assay [13], 0.223. Moreover, the results for the “combination Emax” value in the assay with U-87-MG (Glioblastoma) and with NH-12 (Neuroblastoma) were 0.29 and 0.592, respectively.
Turning to `CC1(C)CCC(CN2CCN(c3ccc(C(=O)NS(=O)(=O)c4ccc(NCC5CCOCC5)c([N+](=O)[O-])c4)c(Oc4cnc5[nH]ccc5c4)c3)CC2)=C(c2ccc(Cl)cc2)C1` [Venetoclax] + CN(C)CCCOc1ccc(-c2ccc3ncc4c(c3c2)n(C2CCOCC2)c(=O)n4C)cn1 [AZD0156] (first compound max 1 µM, 7x7, partner max 1 µM), the “combination Emax” value in [1] turned out to be 0.749; in assay [2] it was 0.31; in the assay with A704 (Kidney Carcinoma), 0.185; in assay [3] it was 0.722; with RPMI-7951 (Melanoma), 0.304; in assay [4], 0.301. Besides, the “combination Emax” value in assay [5] came to 0.145; in assay [6], 0.153; in the assay with BT-20 (Breast Carcinoma), 0.132; in [7], 0.235; in the assay with GOTO (Neuroblastoma) it was 0.455; with NB7 (Neuroblastoma), 0.18. For the same compound, the “combination Emax” value in assay [8] is 0.207; in assay [9] it was 0.135; in [10], 0.256; in assay [11] it was 0.227; in assay [12], 0.352; in [13], 0.275. For the same compound, the “combination Emax” value is 0.203 in the assay with U-87-MG (Glioblastoma) and 0.483 with NH-12 (Neuroblastoma).
Regarding `CC1(C)CCC(CN2CCN(c3ccc(C(=O)NS(=O)(=O)c4ccc(NCC5CCOCC5)c([N+](=O)[O-])c4)c(Oc4cnc5[nH]ccc5c4)c3)CC2)=C(c2ccc(Cl)cc2)C1` [Venetoclax] + C[C@@H]1COCCN1C2=NC(=NC(=C2)C3(CC3)[S@](=N)(=O)C)C4=C5C=CNC5=NC=C4 [AZD6738] (first compound max 1 µM, 7x7, partner max 10 µM), the “combination Emax” value in assay [1] was found to be 0.652; in assay [2], 0.894; in the assay with A704 (Kidney Carcinoma), 0.48; in assay [3] it was 0.824; with RPMI-7951 (Melanoma), 0.887; in assay [4], 0.344. Further, the “combination Emax” value in assay [5] is 0.663; in assay [6], 0.537; in the assay on BT-20 (Breast Carcinoma) it was 0.491; in [7], 0.901; in the assay with GOTO (Neuroblastoma) it was 0.966; with NB7 (Neuroblastoma) it was 0.5. Besides, the “combination Emax” value in assay [8] was 0.864; in assay [9] it was 0.745; in [10], 0.927; in assay [11], 0.411; in assay [12] it was 0.515; in [13], 0.514. Further, the “combination Emax” value in the assay on U-87-MG (Glioblastoma) worked out at 0.596; in the assay with NH-12 (Neuroblastoma), 0.968.
For `COc1nnc2ccc(N3CCC(c4ccc(OCCN5CCN(C)C(=O)[C@H]5C)cc4)CC3)nn12` [AZD5153] + C=CCn1c(=O)c2cnc(Nc3ccc(N4CCN(C)CC4)cc3)nc2n1-c1cccc(C(C)(C)O)n1 [AZD1775] (first compound max 1 µM, partner max 1 µM), the “combination Emax” value in assay [1] worked out at 0.572; in [2], 0.841; with A704 (Kidney Carcinoma), 0.652; in [3], 0.679; in the assay on RPMI-7951 (Melanoma), 0.802; in assay [4], 0.251. In addition, the “combination Emax” value in [5] stood at 0.584; in [6], 0.943; with BT-20 (Breast Carcinoma), 0.471; in assay [7], 0.831; in the assay with GOTO (Neuroblastoma), 0.919; with NB7 (Neuroblastoma) it was 0.587. For the same compound, the “combination Emax” value in assay [8] was found to be 0.948; in assay [9], 0.731; in assay [10] it was 0.999; in assay [11], 0.948; in assay [12], 0.679; in assay [13], 0.802. In addition, the “combination Emax” value was determined as 0.53 with U-87-MG (Glioblastoma) and 0.91 with NH-12 (Neuroblastoma).
With `Cc1c2c(nn1C)CSCc1cc(n(C)n1)CSc1cc(c3ccccc3c1)OCCCc1c(C(=O)O)n(C)c3c-2c(Cl)ccc13` [AZD5991] + C=CCn1c(=O)c2cnc(Nc3ccc(N4CCN(C)CC4)cc3)nc2n1-c1cccc(C(C)(C)O)n1 [AZD1775] (first compound max 1 µM, partner max 1 µM), the “combination Emax” value is 0.984 in assay [1]; 0.854 in [2]; 0.43 with A704 (Kidney Carcinoma); 0.853 in assay [3]; 0.957 with RPMI-7951 (Melanoma); 0.334 in assay [4]. For the same compound, the “combination Emax” value stood at 0.457 in assay [5]; 0.506 in assay [6]; 0.809 in the assay on BT-20 (Breast Carcinoma); 0.922 in assay [7]; 0.834 in the assay with GOTO (Neuroblastoma); 0.869 in the assay with NB7 (Neuroblastoma). In addition, the “combination Emax” value in assay [8] is 0.994; in [9] it was 0.891; in [10], 0.961; in [11], 0.556; in [12], 0.538; in assay [13], 0.299. Also, the “combination Emax” value in the assay with U-87-MG (Glioblastoma) came to 0.457; with NH-12 (Neuroblastoma) it was 0.918.
Consider `CC1(C)CCC(CN2CCN(c3ccc(C(=O)NS(=O)(=O)c4ccc(NCC5CCOCC5)c([N+](=O)[O-])c4)c(Oc4cnc5[nH]ccc5c4)c3)CC2)=C(c2ccc(Cl)cc2)C1` [Venetoclax] + Cn1cnc2c(F)c(Nc3ccc(Br)cc3Cl)c(C(=O)NOCCO)cc21 [Selumetinib] (first compound max 1 µM, 7x7, partner max 3 µM), for which the “combination Emax” value in [1] came out at 0.286; in assay [2], 0.541; in the assay with A704 (Kidney Carcinoma) it was 0.158; in [3], 0.161; in the assay on RPMI-7951 (Melanoma) it was 0.424; in assay [4] it was 0.262. Further, the “combination Emax” value was determined as 0.316 in assay [5]; 0.109 in assay [6]; 0.231 in the assay with BT-20 (Breast Carcinoma); 0.313 in assay [7]; 0.236 with GOTO (Neuroblastoma); 0.137 with NB7 (Neuroblastoma). Also, the “combination Emax” value came out at 0.521 in [8]; 0.748 in assay [9]; 0.18 in assay [10]; 0.246 in [11]; 0.276 in assay [12]; 0.768 in assay [13]. The “combination Emax” value stood at 0.223 in the assay with U-87-MG (Glioblastoma) and 0.777 with NH-12 (Neuroblastoma).
